# Article PMC3848336, “Aurora Isoform Selectivity: Design and Synthesis of Imidazo[4,5-b]pyridine Derivatives as Highly Selective Inhibitors of Aurora-A Kinase in Cells” (Journal of Medicinal Chemistry, 2013)
# Columns and labels:
# Experiment in all cases: Kinase selectivity profiling
# Assay type in all cases: biochemical
# AMPK = conditions: 1 µM; 110-kinase panel
# Excerpt: (§1) Compound 28c was profiled against a panel of 110 kinases at the International Centre for Protein Kinase Profiling, Division of Signal Transduction Therapy, University of Dundee. Compound 40f was profiled against a panel of 50 kinases (MRC-PPU Express Screen) also at the International Centre for Protein Kinase Profiling.
# ASK1 = ASK1 (Homo sapiens, UniProt Q99683); conditions: 110-kinase panel
# Excerpt: as §1
# BRSK1 = BRSK1 (Homo sapiens, UniProt Q8TDC3); conditions: 110-kinase panel
# Excerpt: as §1
# CDK2-Cyclin A = CDK2-Cyclin A (Homo sapiens, UniProt P24941); conditions: 110-kinase panel, read-out: % activity remaining, CDK22Cyclin A
# Excerpt: as §1
# CSK = CSK (Homo sapiens, UniProt P41240); conditions: 110-kinase panel
# Excerpt: as §1
# DAPK1 = DAPK1 (Homo sapiens, UniProt P53355); conditions: 110-kinase panel
# Excerpt: as §1
# DYRK2 = DYRK2 (Homo sapiens, UniProt Q92630); conditions: 110-kinase panel
# Sequence of DYRK2 (Q92630 whole entry): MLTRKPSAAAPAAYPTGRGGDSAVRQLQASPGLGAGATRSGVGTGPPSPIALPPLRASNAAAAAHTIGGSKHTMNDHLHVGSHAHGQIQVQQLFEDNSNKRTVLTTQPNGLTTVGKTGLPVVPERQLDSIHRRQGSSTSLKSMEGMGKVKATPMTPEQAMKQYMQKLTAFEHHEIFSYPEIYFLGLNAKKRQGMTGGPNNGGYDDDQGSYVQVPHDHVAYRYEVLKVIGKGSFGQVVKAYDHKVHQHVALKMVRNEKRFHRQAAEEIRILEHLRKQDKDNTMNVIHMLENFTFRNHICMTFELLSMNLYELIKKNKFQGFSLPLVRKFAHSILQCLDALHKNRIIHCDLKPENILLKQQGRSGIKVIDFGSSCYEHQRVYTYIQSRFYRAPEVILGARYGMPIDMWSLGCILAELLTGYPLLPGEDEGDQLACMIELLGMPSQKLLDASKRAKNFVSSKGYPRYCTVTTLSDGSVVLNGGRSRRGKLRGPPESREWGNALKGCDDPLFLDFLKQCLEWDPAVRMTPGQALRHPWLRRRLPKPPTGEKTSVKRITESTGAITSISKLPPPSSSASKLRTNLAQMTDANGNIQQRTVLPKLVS
# Excerpt: as §1
# DYRK3 = DYRK3 (Homo sapiens, UniProt O43781); conditions: 110-kinase panel
# Excerpt: as §1
# EPH-B2 = EPH-B2 (Homo sapiens, UniProt P29323); conditions: 110-kinase panel, read-out: % activity remaining, EPH2B2
# Excerpt: as §1
# EPH-B3 = EPH-B3 (Homo sapiens, UniProt P54753); conditions: 110-kinase panel, read-out: % activity remaining, EPH2B3
# Excerpt: as §1
# ERK1 = ERK1 (Homo sapiens, UniProt P27361); conditions: 110-kinase panel
# Sequence of ERK1 (P27361 whole entry, species assumed): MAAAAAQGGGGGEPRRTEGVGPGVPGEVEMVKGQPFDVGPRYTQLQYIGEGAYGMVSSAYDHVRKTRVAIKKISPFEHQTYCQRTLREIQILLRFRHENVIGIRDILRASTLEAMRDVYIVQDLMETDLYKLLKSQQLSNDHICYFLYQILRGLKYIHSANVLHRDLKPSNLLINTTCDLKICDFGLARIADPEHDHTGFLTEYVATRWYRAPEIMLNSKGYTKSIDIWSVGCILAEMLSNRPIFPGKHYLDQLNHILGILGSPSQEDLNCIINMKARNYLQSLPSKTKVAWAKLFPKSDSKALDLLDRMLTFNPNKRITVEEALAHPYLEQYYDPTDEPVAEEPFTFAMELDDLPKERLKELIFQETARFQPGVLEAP
# Excerpt: as §1
# ERK2 = ERK2 (Homo sapiens, UniProt P28482); conditions: 110-kinase panel
# Excerpt: as §1
# ERK8 = ERK8 (Homo sapiens, UniProt Q8TD08); conditions: 110-kinase panel
# Excerpt: as §1
# FGF-R1 = FGF-R1 (Homo sapiens, UniProt P11362); conditions: 110-kinase panel, read-out: % activity remaining, FGF2R1
# Sequence of FGF-R1 (P11362 22-822): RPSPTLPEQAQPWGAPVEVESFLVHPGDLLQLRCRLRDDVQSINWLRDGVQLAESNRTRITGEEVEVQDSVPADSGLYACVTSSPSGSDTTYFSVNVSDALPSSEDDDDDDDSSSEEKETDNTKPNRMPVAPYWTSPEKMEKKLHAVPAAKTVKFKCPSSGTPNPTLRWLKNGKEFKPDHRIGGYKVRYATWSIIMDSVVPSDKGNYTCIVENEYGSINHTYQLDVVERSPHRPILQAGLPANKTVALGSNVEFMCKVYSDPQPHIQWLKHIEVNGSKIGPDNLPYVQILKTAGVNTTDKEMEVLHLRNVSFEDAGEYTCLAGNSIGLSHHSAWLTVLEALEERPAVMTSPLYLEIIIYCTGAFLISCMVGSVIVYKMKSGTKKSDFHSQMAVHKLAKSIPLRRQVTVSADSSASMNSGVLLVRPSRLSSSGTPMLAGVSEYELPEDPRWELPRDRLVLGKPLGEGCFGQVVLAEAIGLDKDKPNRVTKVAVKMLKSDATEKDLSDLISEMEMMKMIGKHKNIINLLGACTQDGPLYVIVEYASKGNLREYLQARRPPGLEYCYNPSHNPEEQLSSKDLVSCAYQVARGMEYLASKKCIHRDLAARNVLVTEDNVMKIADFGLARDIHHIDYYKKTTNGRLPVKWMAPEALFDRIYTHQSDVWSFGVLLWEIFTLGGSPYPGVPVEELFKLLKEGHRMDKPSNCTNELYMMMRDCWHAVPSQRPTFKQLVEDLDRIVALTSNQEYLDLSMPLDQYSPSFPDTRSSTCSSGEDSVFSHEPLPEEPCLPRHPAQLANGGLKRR
# Excerpt: as §1
# HIPK1 = HIPK1 (Homo sapiens, UniProt Q86Z02); conditions: 110-kinase panel
# Excerpt: as §1
# HIPK3 = HIPK3 (Homo sapiens, UniProt Q9H422); conditions: 110-kinase panel
# Excerpt: as §1
# IKKe = IKKe (Homo sapiens, UniProt Q14164); conditions: 110-kinase panel
# Excerpt: as §1
# IR = IR (Homo sapiens, UniProt P06213); conditions: 110-kinase panel
# Excerpt: as §1
# IRR = IRR (Homo sapiens, UniProt P14616); conditions: 110-kinase panel
# Excerpt: as §1
# JNK2 = JNK2 (Homo sapiens, UniProt P45984); conditions: 110-kinase panel
# Sequence of JNK2 (P45984 whole entry, species assumed): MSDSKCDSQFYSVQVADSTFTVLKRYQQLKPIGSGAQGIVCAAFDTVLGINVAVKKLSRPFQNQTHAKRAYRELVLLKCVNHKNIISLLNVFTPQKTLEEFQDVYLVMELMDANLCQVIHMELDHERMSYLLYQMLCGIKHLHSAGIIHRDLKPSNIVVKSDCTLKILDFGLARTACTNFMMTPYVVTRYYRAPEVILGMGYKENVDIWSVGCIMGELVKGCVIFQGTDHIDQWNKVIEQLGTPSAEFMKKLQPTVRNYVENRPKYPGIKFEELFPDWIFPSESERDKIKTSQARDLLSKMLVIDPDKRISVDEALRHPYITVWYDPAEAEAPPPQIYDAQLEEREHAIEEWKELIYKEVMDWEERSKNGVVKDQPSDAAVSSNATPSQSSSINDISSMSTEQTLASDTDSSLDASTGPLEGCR
# Excerpt: as §1
# JNK3 = JNK3 (Homo sapiens, UniProt P53779); conditions: 110-kinase panel
# Sequence of JNK3 (P53779 whole entry, species assumed): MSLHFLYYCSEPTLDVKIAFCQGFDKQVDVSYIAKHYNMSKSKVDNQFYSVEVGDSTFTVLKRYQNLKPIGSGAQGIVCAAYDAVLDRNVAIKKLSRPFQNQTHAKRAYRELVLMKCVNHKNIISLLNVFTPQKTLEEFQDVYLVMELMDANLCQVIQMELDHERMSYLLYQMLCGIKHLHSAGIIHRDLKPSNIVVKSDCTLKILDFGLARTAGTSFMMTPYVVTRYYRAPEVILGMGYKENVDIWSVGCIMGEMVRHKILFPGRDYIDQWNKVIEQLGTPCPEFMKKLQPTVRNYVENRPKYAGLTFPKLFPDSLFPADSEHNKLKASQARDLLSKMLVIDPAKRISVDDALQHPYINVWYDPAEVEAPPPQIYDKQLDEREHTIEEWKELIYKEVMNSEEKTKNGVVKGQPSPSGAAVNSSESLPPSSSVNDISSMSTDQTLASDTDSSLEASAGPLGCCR
# Excerpt: as §1
# MAPKAP-K2 = MAPKAP-K2 (Homo sapiens, UniProt P49137); conditions: 110-kinase panel, read-out: % activity remaining, MAPKAP2K2
# Sequence of MAPKAP-K2 (P49137 whole entry): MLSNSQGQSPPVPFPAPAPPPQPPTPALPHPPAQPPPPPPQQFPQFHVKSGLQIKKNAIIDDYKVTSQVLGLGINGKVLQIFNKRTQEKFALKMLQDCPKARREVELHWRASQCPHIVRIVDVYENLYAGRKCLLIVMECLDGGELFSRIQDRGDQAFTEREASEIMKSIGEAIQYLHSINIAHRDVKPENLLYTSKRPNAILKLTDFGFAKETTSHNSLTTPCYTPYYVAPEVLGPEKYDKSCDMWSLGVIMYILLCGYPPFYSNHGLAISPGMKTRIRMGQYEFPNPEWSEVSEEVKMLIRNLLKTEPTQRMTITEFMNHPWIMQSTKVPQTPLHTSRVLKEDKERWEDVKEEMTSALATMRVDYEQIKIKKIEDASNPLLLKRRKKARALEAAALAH
# Excerpt: as §1
# MAPKAP-K3 = MAPKAP-K3 (Homo sapiens, UniProt Q16644); conditions: 110-kinase panel, read-out: % activity remaining, MAPKAP2K3
# Excerpt: as §1
# MARK2 = MARK2 (Homo sapiens, UniProt Q7KZI7); conditions: 110-kinase panel
# Excerpt: as §1
# MKK2 = MKK2 (Homo sapiens, UniProt P36507); conditions: 110-kinase panel
# Excerpt: as §1
# MKK6 = MKK6 (Homo sapiens, UniProt P52564); conditions: 110-kinase panel
# Excerpt: as §1
# MNK1 = MNK1 (Homo sapiens, UniProt Q9BUB5); conditions: 110-kinase panel
# Excerpt: as §1
# MNK2 = MNK2 (Homo sapiens, UniProt Q9HBH9); conditions: 110-kinase panel
# Excerpt: as §1
# MST4 = MST4 (Homo sapiens, UniProt Q9P289); conditions: 110-kinase panel
# Excerpt: as §1
# NEK2a = NEK2a (Homo sapiens, UniProt P51955); conditions: 110-kinase panel
# Excerpt: as §1
# PAK2 = PAK2 (Homo sapiens, UniProt Q13177); conditions: 110-kinase panel
# Sequence of PAK2 (Q13177 whole entry): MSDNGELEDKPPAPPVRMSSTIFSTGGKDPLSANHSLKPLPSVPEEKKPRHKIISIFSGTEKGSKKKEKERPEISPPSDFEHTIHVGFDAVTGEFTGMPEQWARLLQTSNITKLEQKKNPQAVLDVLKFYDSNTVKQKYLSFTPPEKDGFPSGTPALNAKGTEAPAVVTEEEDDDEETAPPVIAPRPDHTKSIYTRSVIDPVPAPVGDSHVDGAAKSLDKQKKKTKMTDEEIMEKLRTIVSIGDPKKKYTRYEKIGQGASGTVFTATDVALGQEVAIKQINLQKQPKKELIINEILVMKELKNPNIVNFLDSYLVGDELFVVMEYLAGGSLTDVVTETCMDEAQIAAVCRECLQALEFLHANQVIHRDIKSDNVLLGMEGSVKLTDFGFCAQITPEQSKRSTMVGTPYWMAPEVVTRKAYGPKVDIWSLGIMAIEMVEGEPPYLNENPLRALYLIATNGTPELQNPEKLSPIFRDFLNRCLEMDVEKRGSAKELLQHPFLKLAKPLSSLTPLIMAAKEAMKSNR
# Excerpt: as §1
# PAK5 = PAK5 (Homo sapiens, UniProt Q9P286); conditions: 110-kinase panel
# Excerpt: as §1
# PAK6 = PAK6 (Homo sapiens, UniProt Q9NQU5); conditions: 110-kinase panel
# Excerpt: as §1
# PHK = PHK (Homo sapiens, UniProt Q16816); conditions: 110-kinase panel
# Sequence of PHK (Q16816 whole entry): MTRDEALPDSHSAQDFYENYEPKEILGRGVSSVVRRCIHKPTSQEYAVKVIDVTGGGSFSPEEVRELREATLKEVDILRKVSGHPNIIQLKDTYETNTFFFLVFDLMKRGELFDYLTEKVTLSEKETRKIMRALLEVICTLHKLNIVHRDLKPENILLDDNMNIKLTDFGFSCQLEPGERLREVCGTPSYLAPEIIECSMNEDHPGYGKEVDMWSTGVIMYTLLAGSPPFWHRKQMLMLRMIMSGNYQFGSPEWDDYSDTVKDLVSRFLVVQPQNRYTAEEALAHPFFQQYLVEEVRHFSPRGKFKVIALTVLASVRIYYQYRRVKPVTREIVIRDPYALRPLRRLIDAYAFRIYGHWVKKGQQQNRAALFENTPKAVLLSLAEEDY
# Excerpt: as §1
# PIM3 = PIM3 (Homo sapiens, UniProt Q86V86); conditions: 110-kinase panel
# Excerpt: as §1
# PRAK = PRAK (Homo sapiens, UniProt Q8IW41); conditions: 110-kinase panel
# Excerpt: as §1
# TAO1 = TAO1 (Homo sapiens, UniProt Q7L7X3); conditions: 110-kinase panel
# Excerpt: as §1
# YES1 = YES1 (Homo sapiens, UniProt P07947); conditions: 110-kinase panel
# Excerpt: as §1
# p38b MAPK = p38b MAPK (Homo sapiens, UniProt Q15759); conditions: 110-kinase panel
# Excerpt: as §1
# p38g MAPK = p38g MAPK (Homo sapiens, UniProt P53778); conditions: 110-kinase panel
# Sequence of p38g MAPK (P53778 whole entry): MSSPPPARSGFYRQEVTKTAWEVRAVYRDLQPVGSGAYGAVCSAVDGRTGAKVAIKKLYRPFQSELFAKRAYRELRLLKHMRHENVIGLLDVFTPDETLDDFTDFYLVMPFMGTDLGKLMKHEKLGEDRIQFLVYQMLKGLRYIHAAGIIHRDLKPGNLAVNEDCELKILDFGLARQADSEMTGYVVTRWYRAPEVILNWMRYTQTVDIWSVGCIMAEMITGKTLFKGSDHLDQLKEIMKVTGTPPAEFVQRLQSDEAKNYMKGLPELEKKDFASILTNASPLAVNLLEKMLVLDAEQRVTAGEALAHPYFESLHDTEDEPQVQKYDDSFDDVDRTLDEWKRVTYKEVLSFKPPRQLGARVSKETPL
# Excerpt: as §1
structure (smiles),measurement,setting,value
"Cc1nn(C)cc1-c1nc2c(Oc3ccc(C(=O)Nc4ccccc4)cc3)c(Cl)cnc2[nH]1 [compound 28c, 4-((6-Chloro-2-(1,3-dimethyl-1H-pyrazol-4-yl)-3H-imidazo[4,5-b]pyridin-7-yl)oxy)-N-phenylbenzamide]","% activity remaining, AMPK",AMPK,83%
same,remaining activity at 1 µM,ASK1,119%
same,remaining activity at 1 µM,BRSK1,109%
same,remaining activity at 1 µM,CDK2-Cyclin A,58%
same,remaining activity at 1 µM,CSK,76%
same,remaining activity at 1 µM,DAPK1,95%
same,remaining activity at 1 µM,DYRK2,87%
same,remaining activity at 1 µM,DYRK3,102%
same,remaining activity at 1 µM,EPH-B2,91%
same,remaining activity at 1 µM,EPH-B3,106%
same,remaining activity at 1 µM,ERK1,172%
same,remaining activity at 1 µM,ERK2,85%
same,remaining activity at 1 µM,ERK8,36%
same,remaining activity at 1 µM,FGF-R1,82%
same,remaining activity at 1 µM,HIPK1,102%
same,remaining activity at 1 µM,HIPK3,96%
same,remaining activity at 1 µM,IKKe,101%
same,remaining activity at 1 µM,IR,124%
same,remaining activity at 1 µM,IRR,108%
same,remaining activity at 1 µM,JNK2,90%
same,remaining activity at 1 µM,JNK3,87%
same,remaining activity at 1 µM,MAPKAP-K2,91%
same,remaining activity at 1 µM,MAPKAP-K3,92%
same,remaining activity at 1 µM,MARK2,104%
same,remaining activity at 1 µM,MKK2,94%
same,remaining activity at 1 µM,MKK6,95%
same,remaining activity at 1 µM,MNK1,126%
same,remaining activity at 1 µM,MNK2,109%
same,remaining activity at 1 µM,MST4,115%
same,remaining activity at 1 µM,NEK2a,96%
same,remaining activity at 1 µM,PAK2,102%
same,remaining activity at 1 µM,PAK5,56%
same,remaining activity at 1 µM,PAK6,101%
same,remaining activity at 1 µM,PHK,101%
same,remaining activity at 1 µM,PIM3,102%
same,remaining activity at 1 µM,PRAK,103%
same,remaining activity at 1 µM,TAO1,100%
same,remaining activity at 1 µM,YES1,111%
same,remaining activity at 1 µM,p38b MAPK,89%
same,remaining activity at 1 µM,p38g MAPK,96%
